PubChem BioAssay (NCI)
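Method: 48-hour compound exposure of cells in 96-well plates, five concentrations, linear interpolation of endpoints. Abbreviation: GI50, concentration required for 50% inhibition of growth. TGI is the concentration that stops growth completely.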

What was measured:
Assay in all cases: NCI tumour cell line growth inhibition, 48 h
[1] = tested on: A549 NSCLC
[2] = tested on: ACHN renal
[3] = tested on: CCRF-CEM leukemia
[4] = tested on: HCT-116 colon
[5] = tested on: MDA-MB-231 breast
[6] = tested on: NCI-H226 lung
[7] = tested on: NCI-H23 lung
[8] = tested on: SK-MEL-28 melanoma
[9] = tested on: SNB-19 CNS
[10] = tested on: T-47D breast

Compound: COC(=O)C(CNC(=O)/C=C/c1ccc(OC(C)=O)c(OC(C)=O)c1)NC(=O)/C=C/c1ccc(OC(C)=O)c(OC(C)=O)c1 (stereo not given)
- TGI [1]: > 100 µM
- TGI [2]: > 100 µM
- TGI [3]: > 100 µM
- TGI [4]: > 100 µM
- TGI [5]: > 100 µM
- TGI [6]: > 100 µM
- TGI [7]: > 100 µM
- TGI [8]: > 100 µM
- TGI [9]: > 100 µM
- TGI [10]: > 100 µM

Compound: Cc1ccc(S(=O)(=O)NC(=O)NC(CC(=O)O)C(=O)O)cc1 (stereo not given)
- TGI [1]: > 100 µM
- TGI [2]: > 100 µM
- TGI [3]: > 100 µM
- TGI [4]: > 100 µM
- TGI [5]: > 100 µM
- TGI [7]: > 100 µM
- TGI [8]: > 100 µM
- TGI [9]: > 100 µM
- TGI [10]: > 100 µM

Compound: CCN(CCC#N)C(=O)Nc1ccccc1
- TGI [1]: > 100 µM
- TGI [2]: > 100 µM
- TGI [3]: > 100 µM
- TGI [4]: > 100 µM
- TGI [5]: > 100 µM
- TGI [6]: > 100 µM
- TGI [7]: > 100 µM
- TGI [8]: > 100 µM
- TGI [9]: > 100 µM
- TGI [10]: > 100 µM

Compound: Nc1ccc(C(=O)O)cc1
- TGI [1]: > 100 µM
- TGI [2]: > 100 µM
- TGI [3]: > 100 µM
- TGI [4]: > 100 µM
- TGI [5]: > 100 µM
- TGI [6]: > 100 µM
- TGI [7]: > 100 µM
- TGI [8]: > 100 µM
- TGI [9]: > 100 µM
- TGI [10]: > 100 µM

Compound: CC(=O)c1c(O)cc(O)c(-c2c(C)cc(O)c3c2C(=O)c2cccc(O)c2C3=O)c1O
- TGI [1]: 34.2 µM
- TGI [2]: 25.5 µM
- TGI [4]: 30 µM
- TGI [5]: 41.1 µM
- TGI [6]: 58.1 µM
- TGI [8]: 73.5 µM
- TGI [9]: 39.1 µM
- TGI [10]: 22.7 µM

Compound: CC1C(c2ccccc2)NC(c2ccccc2)CC1(N)C#N (stereo not given)
- TGI [1]: > 100 µM
- TGI [2]: > 100 µM
- TGI [3]: > 100 µM
- TGI [4]: > 100 µM
- TGI [5]: > 100 µM
- TGI [6]: > 100 µM
- TGI [7]: > 100 µM
- TGI [8]: > 100 µM
- TGI [9]: > 100 µM
- TGI [10]: > 100 µM

Compound: CC1=NN(c2nc(N)nc(-c3cc4ccccc4oc3=N)n2)C(C)(C)C1
- TGI [1]: 41.3 µM
- TGI [2]: 34.8 µM
- TGI [3]: 48.6 µM
- TGI [4]: 35.5 µM
- TGI [5]: 43.4 µM
- TGI [6]: 30.4 µM
- TGI [7]: 29.7 µM
- TGI [8]: 30.5 µM
- TGI [9]: > 100 µM
- TGI [10]: 34.3 µM

Compound: N#Cc1c(N2CCCC2)nsc1Nc1ccccc1
- TGI [1]: > 100 µM
- TGI [2]: > 100 µM
- TGI [3]: > 100 µM
- TGI [4]: > 100 µM
- TGI [5]: > 100 µM
- TGI [6]: > 100 µM
- TGI [7]: > 100 µM
- TGI [8]: > 100 µM
- TGI [9]: > 100 µM
- TGI [10]: > 100 µM

Compound: COc1cc2nc(-c3cccs3)nc(N3C(c4cc(OC)c(OC)c(OC)c4)=NNC(=O)c4ccccc43)c2cc1OC
- TGI [1]: > 100 µM
- TGI [2]: > 100 µM
- TGI [4]: > 100 µM
- TGI [5]: 40.6 µM
- TGI [6]: > 100 µM
- TGI [7]: 35.4 µM
- TGI [8]: 81.6 µM
- TGI [9]: 46.3 µM
- TGI [10]: > 100 µM

Compound: Cc1oc2nc(N(C)C)n3cnnc3c2c1C
- TGI [1]: > 100 µM
- TGI [2]: > 100 µM
- TGI [3]: > 100 µM
- TGI [4]: > 100 µM
- TGI [5]: > 100 µM
- TGI [6]: > 100 µM
- TGI [7]: > 100 µM
- TGI [8]: > 100 µM
- TGI [9]: > 100 µM
- TGI [10]: > 100 µM

Compound: COc1ccc(C2NC(N)=C(C#N)C3=C2C(C)CCC3)cc1OC (stereo not given)
- TGI [2]: > 100 µM
- TGI [3]: > 100 µM
- TGI [4]: > 100 µM
- TGI [5]: > 100 µM
- TGI [6]: > 100 µM
- TGI [7]: > 100 µM
- TGI [8]: > 100 µM
- TGI [9]: > 100 µM
- TGI [10]: > 100 µM

Compound: NS(=O)(=O)c1ccc(NCc2nc3ccccc3[nH]2)cc1
- TGI [1]: > 100 µM
- TGI [2]: > 100 µM
- TGI [4]: > 100 µM
- TGI [5]: > 100 µM
- TGI [6]: > 100 µM
- TGI [7]: > 100 µM
- TGI [9]: > 100 µM
- TGI [10]: > 100 µM

Compound: CC(C)=CCC[C@@H](C)C1=C(O)C(Nc2ccccc2)=C(C)C(=O)C1=O
- TGI [1]: 45.5 µM
- TGI [2]: 36.1 µM
- TGI [3]: 5.78 µM
- TGI [4]: > 75.6 µM
- TGI [5]: > 100 µM
- TGI [6]: > 73.4 µM
- TGI [7]: 98.7 µM
- TGI [8]: > 100 µM
- TGI [9]: > 100 µM
- TGI [10]: 59.7 µM

Compound: CNC(=O)C1OC(n2cnc3c(NCc4cccc(I)c4)nc(Cl)nc32)C(O)C1O (stereo not given)
- TGI [2]: 24 µM
- TGI [3]: 76.6 µM
- TGI [4]: 41.7 µM
- TGI [5]: 66.6 µM
- TGI [6]: 23 µM
- TGI [7]: 25.5 µM
- TGI [9]: 24.9 µM
- TGI [10]: 61.8 µM

Compound: Cn1c(-c2c(C3=CC(=O)N(c4ccccc4)C3=O)c3ccccc3n2C)cc2ccccc21
- TGI [1]: > 100 µM
- TGI [2]: > 100 µM
- TGI [3]: > 100 µM
- TGI [4]: > 100 µM
- TGI [5]: > 100 µM
- TGI [6]: > 100 µM
- TGI [7]: > 100 µM
- TGI [8]: > 100 µM
- TGI [9]: > 100 µM
- TGI [10]: > 100 µM

Compound: CCc1n[nH]c(=O)[nH]1
- TGI [1]: > 100 µM
- TGI [2]: > 100 µM
- TGI [3]: > 100 µM
- TGI [4]: > 100 µM
- TGI [5]: > 100 µM
- TGI [7]: > 100 µM
- TGI [9]: > 100 µM
- TGI [10]: > 100 µM

Compound: N=C(N)c1ccc(-c2ccc(-c3ccc(Cl)cc3Cl)s2)nc1
- GI50 [2]: 1.77 µM
- TGI [2]: 3.16 µM
- GI50 [3]: 2.27 µM
- TGI [3]: 5.01 µM
- GI50 [5]: 1.68 µM
- TGI [5]: 3.26 µM
- GI50 [6]: 5.02 µM
- TGI [6]: 28.4 µM
- GI50 [7]: 1.65 µM
- TGI [7]: 3.19 µM
- GI50 [8]: 1.76 µM
- TGI [8]: 3.28 µM
- GI50 [10]: 2.21 µM
- TGI [10]: 4.96 µM

Compound: COc1cc(-c2nc(SC)nc3c2CCc2ccccc2-3)cc(OC)c1OC
- TGI [1]: > 100 µM
- TGI [2]: > 100 µM
- TGI [3]: > 100 µM
- TGI [4]: > 100 µM
- TGI [5]: > 100 µM
- TGI [7]: > 100 µM
- TGI [8]: > 100 µM
- TGI [9]: > 100 µM
- TGI [10]: > 100 µM

Compound: CC(C)(CO)CNc1cc(Cl)nc(N)n1
- TGI [1]: > 100 µM
- TGI [2]: > 100 µM
- TGI [3]: > 100 µM
- TGI [4]: > 100 µM
- TGI [5]: > 100 µM
- TGI [6]: > 100 µM
- TGI [7]: > 100 µM
- TGI [8]: > 100 µM
- TGI [10]: > 100 µM

Compound: Cc1cc(S(=O)(=O)Nc2n[nH]c(Nc3ccccc3)n2)c(SSc2cc(Cl)c(C)cc2S(=O)(=O)Nc2n[nH]c(Nc3ccccc3)n2)cc1Cl
- TGI [1]: > 100 µM
- TGI [2]: > 100 µM
- TGI [3]: > 100 µM
- TGI [4]: > 100 µM
- TGI [5]: > 100 µM
- TGI [7]: > 100 µM
- TGI [8]: > 100 µM
- TGI [9]: > 100 µM
- TGI [10]: > 100 µM

Compound: Cc1ccc2c(=O)cc(-c3cccc(F)c3)[nH]c2n1
- TGI [1]: > 100 µM
- TGI [2]: > 100 µM
- TGI [3]: > 100 µM
- TGI [5]: 1.11 µM
- TGI [6]: 0.475 µM
- TGI [7]: 0.739 µM
- TGI [8]: > 100 µM

Compound: O=c1onc(Nc2ccccc2)n1-c1ccccc1
- TGI [1]: > 100 µM
- TGI [2]: > 100 µM
- TGI [3]: > 100 µM
- TGI [4]: > 100 µM
- TGI [5]: > 100 µM
- TGI [6]: > 100 µM
- TGI [7]: > 100 µM
- TGI [8]: > 100 µM
- TGI [9]: > 100 µM

Compound: CCCCCCCCCCOc1ccc(N=Nc2nnc(-c3ccc(OCCCCC)cc3)s2)cc1
- TGI [1]: > 100 µM
- TGI [2]: > 100 µM
- TGI [3]: > 100 µM
- TGI [4]: > 100 µM
- TGI [5]: > 100 µM
- TGI [7]: > 100 µM
- TGI [8]: > 100 µM
- TGI [9]: > 100 µM
- TGI [10]: > 100 µM
